Measured values from US9957274B2, “Indane inhibitors of EED and methods of their use” (AbbVie Inc., priority 2016, dated 2018).

Columns and labels:
[1] = molecular target: EED (Homo sapiens, UniProt O75530); test: EED TR-FRET Binding Assay (modified LanthaScreen competition assay)
How it was run: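 Competition binding in a modified LanthaScreen format, in 20 mM Tris-HCl pH 7.5, 200 mM NaCl, 0.01% Tween-20, 10 uM DTT and 0.05% BSA. Reactions ran 1 hour at 25° C before TR-FRET detection.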

[2] = tested on: H3K27me3 in G401 cells; test: H3K27me3 AlphaLISA assay in G401 cells; format: cell-based; conditions: Homo sapiens, G-401, 144 h, 6 days with compound
[3] = tested on: H3K27me3 in OCILY19 cells; test: H3K27me3 AlphaLISA assay in OCILY19 cells; format: cell-based; conditions: Homo sapiens, OCI-LY19, 144 h, 6 days with compound, read-out: OCILY-19 IC50
Description: 5,000 cells were plated into each well of 96-well Corning CellBing cell culture plates and incubated overnight at 37° C. in a humidified CO2 incubator. […] The cell culture plates were then incubated for 6 more days. H3K27me3 AlphaLISA assay was performed on the cell culture samples by using AlphaLISAR® H3K27me3 Cellular Detection Kit (PerkinElmer) and 96-well white half-area plates (PerkinElmer).

[4] = tested on: Pfeiffer cells; test: CTG cell viability assay (CellTiter-Glo); format: cell-based; conditions: Homo sapiens, 240 h; Pfeiffer cells, 10 days with compound, CellTiter-Glo; read-out: Cell Proliferation IC50
Description: 1,000 cells were plated into each well of 96-well Corning CellBing cell culture plates and incubated overnight at 37° C. in a humidified CO2 incubator. […] The cell culture plates were then incubated for 10 more days. CTG cell viability assay was performed on the cell culture samples by using CellTiter-Glo® Luminescent Cell Viability Assay Kit (Promega).

Sequence of EED (O75530 whole entry): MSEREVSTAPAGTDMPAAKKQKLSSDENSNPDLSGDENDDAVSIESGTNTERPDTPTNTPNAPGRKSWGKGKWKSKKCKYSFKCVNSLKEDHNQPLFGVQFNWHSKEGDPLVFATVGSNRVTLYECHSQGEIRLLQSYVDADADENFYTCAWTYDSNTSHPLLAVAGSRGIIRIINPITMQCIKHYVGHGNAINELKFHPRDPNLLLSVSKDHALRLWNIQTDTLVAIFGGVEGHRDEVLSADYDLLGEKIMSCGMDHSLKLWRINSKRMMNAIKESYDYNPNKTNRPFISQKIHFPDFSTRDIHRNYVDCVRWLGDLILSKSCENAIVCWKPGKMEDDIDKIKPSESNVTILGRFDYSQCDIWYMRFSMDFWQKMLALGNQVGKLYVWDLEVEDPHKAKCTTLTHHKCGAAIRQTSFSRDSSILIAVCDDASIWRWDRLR

IC50 [1] [µM]	IC50 [2] [µM]	IC50 [3] [µM]	SMILES	IC50 [4] [µM]
0.00145	0.0615	0.206	CN(C)[C@H]1CN(C2CCc3cccc(F)c32)C[C@@H]1c1cn(C)c2c(C(=O)N3CCN(S(=O)(=O)N4CC(C#N)C4)CC3)cccc12 (stereo partly drawn) [Example 133, 1-(4-{3-[(3S,4R)-4-(dimethylamino)-1-(7-fluoro-2,3-dihydro-1H-inden-1-yl)pyrrolidin-3-yl]-1-methyl-1H-indole-7-carbonyl}piperazine-1-sulfonyl)azetidine-3-carbonitrile]	0.133
0.00198	0.372	0.493	CNC(=O)c1ccc(N2CCC([C@H]3CN(C4CCc5cccc(F)c54)C[C@@H]3N(C)C)CC2)nc1 (mixture of isomers) [Example 154, rac-6-{4-[(3S,4R)-4-(dimethylamino)-1-(7-fluoro-2,3-dihydro-1H-inden-1-yl)pyrrolidin-3-yl]piperidin-1-yl}-N-methylpyridine-3-carboxamide]	0.455
0.000481	0.0626	0.178	CN(C)C(=O)c1ccc2c([C@H]3CN(C4CCc5cccc(F)c54)C[C@@H]3N(C)C)cn(C)c2c1 (mixture of isomers) [Example 87, rac-3-[(3S,4R)-4-(dimethylamino)-1-(7-fluoro-2,3-dihydro-1H-inden-1-yl)pyrrolidin-3-yl]-N,N,1-trimethyl-1H-indole-6-carboxamide]	0.0941
0.00205	0.332	0.617	Cc1n[nH]c(C)c1S(=O)(=O)N1CCN(C(=O)c2cccc3c([C@H]4CN(C5CCc6cccc(F)c65)C[C@@H]4N(C)C)cn(C)c23)CC1 (mixture of isomers) [Example 136, rac-{3-[(3S,4R)-4-(dimethylamino)-1-(7-fluoro-2,3-dihydro-1H-inden-1-yl)pyrrolidin-3-yl]-1-methyl-1H-indol-7-yl}[4-(3,5-dimethyl-1H-pyrazole-4-sulfonyl)piperazin-1-yl]methanone]	1.52
0.00144	0.0633	0.162	CN(C)[C@H]1CN(C2CCc3cccc(F)c32)C[C@@H]1c1cn(C)c2c(C(=O)N3CCN(S(=O)(=O)N4CCC4)CC3)cccc12 (stereo partly drawn) [Example 132, [4-(azetidine-1-sulfonyl)piperazin-1-yl]{3-[(3S,4R)-4-(dimethylamino)-1-(7-fluoro-2,3-dihydro-1H-inden-1-yl)pyrrolidin-3-yl]-1-methyl-1H-indol-7-yl}methanone]	0.0943
0.000335	0.0407	0.101	CN(C)[C@H]1CN(C2CCc3cccc(F)c32)C[C@@H]1c1cn(C)c2c(C(=O)N3CC(F)C3)cccc12 (stereo partly drawn) [Example 102, {3-[(3S,4R)-4-(dimethylamino)-1-(7-fluoro-2,3-dihydro-1H-inden-1-yl)pyrrolidin-3-yl]-1-methyl-1H-indol-7-yl}(3-fluoroazetidin-1-yl)methanone]	0.0736
0.0014	0.227	0.205	CN(C)[C@@H]1CN(C2CCc3cccc(F)c32)C[C@H]1c1ccc(N2CCN(C(=O)CS(C)(=O)=O)CC2)nc1 (mixture of isomers) [Example 157, rac-1-(4-{5-[(3R,4S)-4-(dimethylamino)-1-(7-fluoro-2,3-dihydro-1H-inden-1-yl)pyrrolidin-3-yl]pyridin-2-yl}piperazin-1-yl)-2-(methanesulfonyl)ethan-1-one]	0.354
0.00156	0.0864	0.207	CN(C)[C@H]1CN(C2CCc3cccc(F)c32)C[C@@H]1c1cn(C)c2c(C(=O)N3CCN(S(=O)(=O)N(C)C)CC3)cccc12 (mixture of isomers) [Example 124, rac-4-{3-[(3S,4R)-4-(dimethylamino)-1-(7-fluoro-2,3-dihydro-1H-inden-1-yl)pyrrolidin-3-yl]-1-methyl-1H-indole-7-carbonyl}-N,N-dimethylpiperazine-1-sulfonamide]	0.349
